Results on eight compounds are retold here after US20200079757A1, “COMPOUNDS FOR THE TREATMENT OF RESPIRATORY DISEASES” (THE UNIVERSITY OF MELBOURNE, priority 2017, published 2020).

SMILES strings stand for the structures.

Data set [1] has as its system SCNN1A gene expression in BEAS-2B cells. Briefly: TGF-β-induced suppression of dexamethasone-induced SCNN1A gene expression in BEAS-2B cells. Format: cell-based. The following applies: BEAS-2B, agent 10 μM. The protocol: The primary assay for the activity of the novel CK1δ/ε inhibitors is the modulation of gene expression in the airway epithelial cell line, the BEAS-2B cells. The assay is conducted under several conditions. Generally, TGF-β or TNF-α is used to elicit fibrogenic or inflammatory genes, respectively. The agents are added at a concentration of 10 μM, or at the indicated concentrations for a period of 30 min prior to the addition of TGF-β/TNF-α which are incubated for a further 20 hours before the addition, in some experiments of the glucocorticoid, dexamethasone (Dex, 30 nM) for the final 4 hours of the experiment, prior to harvest of cellular RNA to measure by RT-qPCR the levels of mRNA of marker genes for inflammation and fibrogenesis. The inhaled corticosteroid (ICS), budesonide is also used in some experiments. Furthermore, the supernatants are harvested at the end of the incubation periods in selected experiments to measure the levels of CSF-2 or IL-8 by ELISA as described in (Tran et al. (2005) British Journal of Pharmacology, 145, 123-131). Prior to experimentation, BEAS-2B and A549 cells were incubated in serum-free DMEM containing 0.25% bovine serum albumin (BSA) and insulin-transferrin-selenium—containing supplement (Monomed A; CSL, Parkville, Melbourne, Australia). Where indicated, cells were treated with one of the series of synthesised compounds (0.3-10 μM) prior to exposure to 100 pM TGF-β1 (R&D Systems, Minneapolis, Minn.) or 300 pM bFGF (Promega, Madison, Wis.). Total RNA was extracted from cultured cells using illustra RNAspin Mini RNA Isolation Kit (GE Healthcare). RNA extracts were reverse-transcribed into cDNA using High-Capacity RNA-to-cDNA Kit (Applied Biosystems). Real-time PCR was then performed using a QuantStudio 6 Flex Real-Time PCR System using iTaq Universal SYBR green supermix and the following thermal protocol: 50° C. (2 min), 95° C. (10 min), then 40 cycles of 95° C. (15 sec), 60° C. (1 min). The threshold cycle (CT) values determined for target genes were normalized against those obtained for 18S ribosomal RNA (18S rRNA), which was included as internal control. The generation of specific PCR products was confirmed by dissociation curve analysis. In FIG. 1, the effects of SS9-010 are contrasted with those of PF670462 in an assay in BEAS-B cells measuring the induction of the glucocorticoid-regulated gene, SCNN1A encoding the protein epithelial sodium channel alpha subunit. Serum-starved BEAS-2B cells were treated with CK1δ/ε inhibitor PF670462 (1, 3, 10 μM) or SS9-010 (1, 3, 10 μM) 30 min prior to TGF-β1 (40 pM) for 24 hours, then stimulated with dexamethasone (30 nM) for 4 hours. RNA was then extracted and analyzed by RT-qPCR. Data are presented as mean±SEM for n=4 independent experiments. The potency of PF670462 and SS9-010 were similar.

In data set [2] the test system is Col 1A gene expression in BEAS-2B cells. Briefly: TNFα and TGFβ induced Col 1A gene expression in BEAS-2B cells (RT-qPCR). Format: cell-based. The following applies: agent 10 μM. How it is done:
The primary assay for the activity of the novel CK1δ/ε inhibitors is the modulation of gene expression in the airway epithelial cell line, the BEAS-2B cells. The assay is conducted under several conditions. Generally, TGF-β or TNF-α is used to elicit fibrogenic or inflammatory genes, respectively. The agents are added at a concentration of 10 μM, or at the indicated concentrations for a period of 30 min prior to the addition of TGF-β/TNF-α which are incubated for a further 20 hours before the addition, in some experiments of the glucocorticoid, dexamethasone (Dex, 30 nM) for the final 4 hours of the experiment, prior to harvest of cellular RNA to measure by RT-qPCR the levels of mRNA of marker genes for inflammation and fibrogenesis. The inhaled corticosteroid (ICS), budesonide is also used in some experiments. Furthermore, the supernatants are harvested at the end of the incubation periods in selected experiments to measure the levels of CSF-2 or IL-8 by ELISA as described in (Tran et al. (2005) British Journal of Pharmacology, 145, 123-131).
Prior to experimentation, BEAS-2B and A549 cells were incubated in serum-free DMEM containing 0.25% bovine serum albumin (BSA) and insulin-transferrin-selenium—containing supplement (Monomed A; CSL, Parkville, Melbourne, Australia). Where indicated, cells were treated with one of the series of synthesised compounds (0.3-10 μM) prior to exposure to 100 pM TGF-β1 (R&D Systems, Minneapolis, Minn.) or 300 pM bFGF (Promega, Madison, Wis.).
Total RNA was extracted from cultured cells using illustra RNAspin Mini RNA Isolation Kit (GE Healthcare). RNA extracts were reverse-transcribed into cDNA using High-Capacity RNA-to-cDNA Kit (Applied Biosystems). Real-time PCR was then performed using a QuantStudio 6 Flex Real-Time PCR System using iTaq Universal SYBR green supermix and the following thermal protocol: 50° C. (2 min), 95° C. (10 min), then 40 cycles of 95° C. (15 sec), 60° C. (1 min). The threshold cycle (CT) values determined for target genes were normalized against those obtained for 18S ribosomal RNA (18S rRNA), which was included as internal control. The generation of specific PCR products was confirmed by dissociation curve analysis.
A general note: Quantitative PCR measures a nucleic acid by following its amplification.

The test system of data set [3] is PAI-1 gene expression in BEAS-2B cells. Briefly: TNF-α and TGF-β induced PAI-1 gene expression in BEAS-2B cells (RT-qPCR). To be noted: agent 10 μM. The data set is classed as cell-based. The protocol: The primary assay for the activity of the novel CK1δ/ε inhibitors is the modulation of gene expression in the airway epithelial cell line, the BEAS-2B cells. The assay is conducted under several conditions. Generally, TGF-β or TNF-α is used to elicit fibrogenic or inflammatory genes, respectively. The agents are added at a concentration of 10 μM, or at the indicated concentrations for a period of 30 min prior to the addition of TGF-β/TNF-α which are incubated for a further 20 hours before the addition, in some experiments of the glucocorticoid, dexamethasone (Dex, 30 nM) for the final 4 hours of the experiment, prior to harvest of cellular RNA to measure by RT-qPCR the levels of mRNA of marker genes for inflammation and fibrogenesis. The inhaled corticosteroid (ICS), budesonide is also used in some experiments. Furthermore, the supernatants are harvested at the end of the incubation periods in selected experiments to measure the levels of CSF-2 or IL-8 by ELISA as described in (Tran et al. (2005) British Journal of Pharmacology, 145, 123-131). Prior to experimentation, BEAS-2B and A549 cells were incubated in serum-free DMEM containing 0.25% bovine serum albumin (BSA) and insulin-transferrin-selenium—containing supplement (Monomed A; CSL, Parkville, Melbourne, Australia). Where indicated, cells were treated with one of the series of synthesised compounds (0.3-10 μM) prior to exposure to 100 pM TGF-β1 (R&D Systems, Minneapolis, Minn.) or 300 pM bFGF (Promega, Madison, Wis.). Total RNA was extracted from cultured cells using illustra RNAspin Mini RNA Isolation Kit (GE Healthcare). RNA extracts were reverse-transcribed into cDNA using High-Capacity RNA-to-cDNA Kit (Applied Biosystems). Real-time PCR was then performed using a QuantStudio 6 Flex Real-Time PCR System using iTaq Universal SYBR green supermix and the following thermal protocol: 50° C. (2 min), 95° C. (10 min), then 40 cycles of 95° C. (15 sec), 60° C. (1 min). The threshold cycle (CT) values determined for target genes were normalized against those obtained for 18S ribosomal RNA (18S rRNA), which was included as internal control. The generation of specific PCR products was confirmed by dissociation curve analysis. In the same experiment as described in FIG. 1, the expression of the fibrogen plasminogen activator inhibitor-1 was measured (see FIG. 2). The levels of this gene are increased by both TGF-β and by Dex and they synergise when added together. The CK1 inhibitors concentration-dependently reduce the effects of each of the stimuli and further reduce baseline expression. Their potency in this effect is similar, regardless of the condition being considered. In a separate experiment BEAS-2B cells were exposed to TNF-α with(out) 30 min pretreatment with either SS9-010 or PF670462 (1-10 μM). RNA was then extracted and analyzed by RT-qPCR. Each agent inhibited TNFa stimulated PAI-1 expression with similar potency and maxima (see FIG. 3). Data are presented as mean±SD for n=1 (three technical replicates).

Take `C#CCNc1nccc(-c2c(-c3ccc(F)cc3)ncn2C2CCCCC2)n1` [compound 83, 4-(1-Cyclohexyl-4-(4-fluorophenyl)-1H-imidazol-5-yl)-N-(prop-2-yn-1-yl)pyrimidin-2-amine]: the melting point fell in the range of 147 to 155 °C.

For `Nc1nccc(-c2c(-c3ccc(F)cc3)ncn2C2CCC2)n1` [ZH-62, 4-(1-Cyclobutyl-4-(4-fluorophenyl)-1H-imidazol-5-yl)pyrimidin-2-amine], the melting point is 229 to 231 °C.

On to `Nc1nccc(-c2c(-c3ccc(F)cc3)ncn2CC2CCCCC2)n1` [ZH-138, 4-(1-(Cyclohexylmethyl)-4-(4-fluorophenyl)-1H-imidazol-5-yl)pyrimidin-2-amine], for which the melting point was 180 to 199 °C.

The compound `Fc1ccc(-c2ncn(C3CCCCC3)c2-c2ccnc(NC3CCC3)n2)cc1` [compound 81, N-Cyclobutyl-4-(1-cyclohexyl-4-(4-fluorophenyl)-1H-imidazol-5-yl)pyrimidin-2-amine] returned a melting point of 185 to 189 °C.

Regarding `CCCCN1CCC(n2cnc(-c3ccc(F)cc3)c2-c2ccnc(N)n2)CC1` [SS9-074, 4-(1-(1-Butylpiperidin-4-yl)-4-(4-fluorophenyl)-1H-imidazol-5-yl)pyrimidin-2-amine], in data set [1], the “SCNN1A mRNA level, Dex” value is given as 3.46 fold control; the “SCNN1A mRNA level, TGF-β” value is given as 0.36 fold control; the “SCNN1A mRNA level, TGF-β/Dex” value is recorded as 3.27 fold control; the “SCNN1A mRNA level, vehicle (no stimulus)” value is recorded as 1.22 fold control. Further, in data set [2], the “Col1A mRNA level, TGF-β” value was 12.2 (n = 2) fold control; the “Col1A mRNA level, TNF-α (n = 2)” value was found to be 2.14 fold control; the “Col1A mRNA level, vehicle (no stimulus)” value is listed as 1.61 fold control. In addition, in data set [3], the “PAI-1 mRNA level, TGF-β” value was 12.3 (n = 2) fold control; the “PAI-1 mRNA level, TNF-α (n = 2)” value was 1.83 fold control; the “PAI-1 mRNA level, vehicle (no stimulus)” value is 0.68 fold control.

For the compound `Nc1nccc(-c2c(-c3ccc(F)cc3)ncn2C2CCN(CCCCc3ccccc3)CC2)n1` [SS8-070, 4-(4-(4-Fluorophenyl)-1-[1-(4-phenylbutyl)piperidin-4-yl)-1H-imidazol-5-yl)pyrimidin-2-amine], in data set [1], the “SCNN1A mRNA level, Dex” value is on record as 3.79 fold control; the “SCNN1A mRNA level, TGF-β” value is listed as 0.42 fold control; the “SCNN1A mRNA level, TGF-β/Dex” value came out at 2.15 fold control; the “SCNN1A mRNA level, vehicle (no stimulus)” value is on record as 1.63 fold control. Moreover, in data set [2], the “Col1A mRNA level, TGF-β” value was 8.52 (n = 2) fold control; the “Col1A mRNA level, TNF-α (n = 2)” value turned out to be 0.88 fold control; the “Col1A mRNA level, vehicle (no stimulus)” value is 1.17 fold control. For the same compound, in data set [3], the “PAI-1 mRNA level, TGF-β” value is given as 6.57 (n = 2) fold control; the “PAI-1 mRNA level, TNF-α (n = 2)” value was determined as 0.79 fold control; the “PAI-1 mRNA level, vehicle (no stimulus)” value worked out at 0.41 fold control.

In the case of `Cc1ccc(-c2ncn(C3CCCCC3)c2-c2ccnc(N)n2)cc1` [SS8-186], in data set [1], the “SCNN1A mRNA level, Dex” value is on record as 3.06 ± 0.34 fold control; the “SCNN1A mRNA level, TGF-β” value is 0.42 ± 0.06 fold control; the “SCNN1A mRNA level, TGF-β/Dex” value is 1.84 ± 0.25 fold control; the “SCNN1A mRNA level, vehicle (no stimulus)” value is recorded as 1.36 ± 0.17 fold control. In data set [2], the “Col1A mRNA level, TGF-β” value is given as 3.14 ± 0.20 fold control; the “Col1A mRNA level, TNF-α (n = 2)” value was 0.56 fold control; the “Col1A mRNA level, vehicle (no stimulus)” value was found to be 0.50 ± 0.12 fold control. Further, in data set [3], the “PAI-1 mRNA level, TGF-β” value was 6.58 ± 1.04 fold control; the “PAI-1 mRNA level, TNF-α (n = 2)” value stood at 1.54 fold control; the “PAI-1 mRNA level, vehicle (no stimulus)” value was 0.75 ± 0.07 fold control.

Take `Nc1nccc(-c2c(-c3ccc(F)cc3)ncn2C23CC4CC(CC(C4)C2)C3)n1` [SS8-122, 4-(Adamantan-1-yl-4-(4-fluorophenyl)-1H-imidazol-5-yl)pyrimidin-2-amine]: in data set [1], the “SCNN1A mRNA level, Dex” value is 4.26 fold control; the “SCNN1A mRNA level, TGF-β” value is 0.15 fold control; the “SCNN1A mRNA level, TGF-β/Dex” value worked out at 1.67 fold control; the “SCNN1A mRNA level, vehicle (no stimulus)” value is given as 0.86 fold control. Besides, in data set [2], the “Col1A mRNA level, TGF-β” value was determined as 8.07 fold control; the “Col1A mRNA level, TNF-α (n = 2)” value stood at 1.56 fold control; the “Col1A mRNA level, vehicle (no stimulus)” value stood at 1.39 fold control. Also, in data set [3], the “PAI-1 mRNA level, TNF-α (n = 2)” value was 2.76 fold control and the “PAI-1 mRNA level, vehicle (no stimulus)” value is recorded as 1.45 fold control.

What is called melting point is the temperature of the solid-liquid transition.
